IC50 data for 33 compounds are collected here from US20220274991A1, “SMALL MOLECULE INHIBITORS OF KU70/80 AND USES THEREOF” (Arizona Board of Regents on Behalf of the University of …, priority 2019, published 2022).

The target in this experiment is T1, Ku70/80 (Homo sapiens, UniProt P12956+P13010).
T1 construct: purchased AMRI
As to the kind of experiment: EMSA IC50 (AMRI Ku70/80). It counts as binding. Particulars: Hill equation fitted. On the technique in general: A gel shift assay detects complexes by their altered migration in electrophoresis.

Broadly, the IC50 is the point on the concentration scale where inhibition reaches its midpoint. Read a high IC50 as weaker potency in that assay.

T1 sequence (P12956 whole entry): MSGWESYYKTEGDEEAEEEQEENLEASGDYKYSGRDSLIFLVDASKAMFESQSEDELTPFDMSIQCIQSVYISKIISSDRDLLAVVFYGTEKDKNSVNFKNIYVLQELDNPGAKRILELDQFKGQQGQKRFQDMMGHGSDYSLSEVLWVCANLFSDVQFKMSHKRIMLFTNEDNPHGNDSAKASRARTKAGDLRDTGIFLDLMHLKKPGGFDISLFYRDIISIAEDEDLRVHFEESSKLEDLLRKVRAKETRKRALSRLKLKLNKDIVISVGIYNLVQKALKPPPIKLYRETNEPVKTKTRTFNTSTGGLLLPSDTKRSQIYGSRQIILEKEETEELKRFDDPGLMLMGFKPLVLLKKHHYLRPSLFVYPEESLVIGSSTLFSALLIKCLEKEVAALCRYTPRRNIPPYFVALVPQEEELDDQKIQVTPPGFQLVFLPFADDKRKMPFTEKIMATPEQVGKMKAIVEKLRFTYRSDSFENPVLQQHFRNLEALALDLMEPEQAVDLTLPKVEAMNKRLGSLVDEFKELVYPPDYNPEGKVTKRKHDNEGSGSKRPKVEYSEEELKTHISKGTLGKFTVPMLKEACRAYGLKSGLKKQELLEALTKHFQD
T1 sequence (P13010 whole entry): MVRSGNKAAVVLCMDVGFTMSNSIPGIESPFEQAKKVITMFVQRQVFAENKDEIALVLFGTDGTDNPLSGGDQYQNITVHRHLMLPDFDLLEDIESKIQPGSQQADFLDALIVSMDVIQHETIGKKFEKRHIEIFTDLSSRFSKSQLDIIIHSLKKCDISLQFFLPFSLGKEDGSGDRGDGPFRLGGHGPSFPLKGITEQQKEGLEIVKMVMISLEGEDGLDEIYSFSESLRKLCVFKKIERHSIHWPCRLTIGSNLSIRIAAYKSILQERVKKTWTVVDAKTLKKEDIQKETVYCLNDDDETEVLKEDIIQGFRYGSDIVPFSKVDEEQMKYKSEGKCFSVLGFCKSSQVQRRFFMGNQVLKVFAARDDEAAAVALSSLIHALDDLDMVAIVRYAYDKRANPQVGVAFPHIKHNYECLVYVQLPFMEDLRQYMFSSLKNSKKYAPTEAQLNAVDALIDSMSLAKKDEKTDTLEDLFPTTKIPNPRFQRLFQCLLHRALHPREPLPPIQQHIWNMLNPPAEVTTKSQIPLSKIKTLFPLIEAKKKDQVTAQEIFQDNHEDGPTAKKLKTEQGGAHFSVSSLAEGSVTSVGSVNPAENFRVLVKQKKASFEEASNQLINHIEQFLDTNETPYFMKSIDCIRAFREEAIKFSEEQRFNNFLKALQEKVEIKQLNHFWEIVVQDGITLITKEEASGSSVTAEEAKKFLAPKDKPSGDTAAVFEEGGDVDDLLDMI

`NS(=O)(=O)c1ccc(CCNc2ncc3c(=O)n(-c4cccc(F)c4)c(=O)[nH]c3n2)cc1` displayed an IC50 of 50 µM.
Then `O=C(O)c1ccc(CNc2ncc3c(=O)n(-c4cccc(F)c4)c(=O)[nH]c3n2)cc1`, with 196 µM; and `O=c1[nH]c2nc(NCCc3cccc(F)c3)ncc2c(=O)n1-c1cccnc1`, with 245 µM.
To `O=c1[nH]c2nc(NCCc3cccnc3)ncc2c(=O)n1-c1cccc(F)c1` belongs 40 µM; to `O=c1[nH]c2nc(NCCc3cccc(F)c3)ncc2c(=O)n1-c1ccccn1`, 58 µM.
To `O=c1[nH]c2nc(NCCc3ccncc3)ncc2c(=O)n1-c1cccc(F)c1` belongs 18 µM; to `O=c1[nH]c2nc(NCCc3ccccn3)ncc2c(=O)n1-c1cccc(F)c1`, 18 µM.
In the case of `O=c1[nH]c2nc(NCCc3ccc4c(c3)OCO4)ncc2c(=O)n1-c1cccc(F)c1`, inhibition was half-maximal at 9.1 µM (IC50).
Then `O=c1[nH]c2nc(NCCc3ccc4c(c3)OC(F)(F)O4)ncc2c(=O)n1-c1cccc(F)c1`, with 20 µM.
To `O=c1[nH]c2nc(NCCc3ccc4c(c3)OCCO4)ncc2c(=O)n1-c1cccc(F)c1` belongs 20 µM; to `O=c1[nH]c2nc(NCCc3ccccc3)ncc2c(=O)n1-c1cccc(F)c1`, 28 µM; to `CN(CCc1cccc(F)c1)c1ncc2c(=O)n(-c3cccc(F)c3)c(=O)[nH]c2n1`, 142 µM.
Then `COc1ccc(CCN(C)c2ncc3c(=O)n(-c4cccc(F)c4)c(=O)[nH]c3n2)cc1OC`, with 184 µM; and `COc1ccc(CCNc2ncc3c(=O)n(-c4cccc(F)c4)c(=O)[nH]c3n2)cc1F`, with 54 µM.
As to `O=c1[nH]c2nc(NCCc3ccc(O)c(F)c3)ncc2c(=O)n1-c1cccc(F)c1`, the IC50 came out at 101 µM.
Then `O=c1[nH]c2nc(NCCc3ccc(F)c(F)c3)ncc2c(=O)n1-c1cccc(F)c1`, with 33 µM; and `O=c1[nH]c2nc(NCC3CCCc4c(F)cccc43)ncc2c(=O)n1-c1cccc(F)c1` (stereo not drawn), with 20 µM; and `O=c1[nH]c2nc(NCc3cccc4c(F)cccc34)ncc2c(=O)n1-c1cccc(F)c1`, with 21 µM.
Then `O=c1[nH]c2nc(N3CCc4cc(F)ccc4C3)ncc2c(=O)n1-c1cccc(F)c1`, with 34 µM.
As for `O=c1[nH]c2nc(NCCc3cccc(F)c3)ncc2c(=O)n1-c1cc(F)ccc1F`, inhibition was half-maximal at 249 µM (IC50).
To `COc1c(F)cccc1-n1c(=O)[nH]c2nc(NCCc3cccc(F)c3)ncc2c1=O` belongs 27 µM.
To `COc1ccc(-n2c(=O)[nH]c3nc(NCCc4cccc(F)c4)ncc3c2=O)cc1F` belongs 11 µM; to `CCOC(=O)c1cccc(-n2c(=O)[nH]c3nc(NCCc4cccc(F)c4)ncc3c2=O)c1`, 11 µM.
To `COc1ccc(-n2c(=O)[nH]c3nc(NCCc4cccc(F)c4)ncc3c2=O)cc1OC` belongs 22 µM; to `O=c1[nH]c2nc(NCCc3cccc(F)c3)ncc2c(=O)n1Cc1ccccc1F`, 10 µM; to `O=c1[nH]c2nc(NCCc3cccc(F)c3)ncc2c(=O)n1-c1nccs1`, 43 µM.
Compound `O=c1[nH]c2nc(NCCc3cccc(F)c3)ncc2c(=O)n1CC1CCNCC1` had an IC50 of 45 µM.
Then `CC(C)Cn1c(=O)[nH]c2nc(NCCc3cccc(F)c3)ncc2c1=O`, with 5.3 µM; and `O=c1[nH]c2nc(NCCc3cccc(F)c3)ncc2c(=O)n1CCO`, with 8.8 µM.
Then `NS(=O)(=O)c1ccc(-n2c(=O)[nH]c3nc(NCCc4cccc(F)c4)ncc3c2=O)cc1`, with 6.9 µM.
Then `O=c1[nH]c2nc(NCCc3cccc(F)c3)ncc2c(=O)n1-c1ccc(N2CCOCC2)c(F)c1`, with 6.9 µM.
With `O=c1[nH]c2nc(NCCc3cccc(F)c3)ncc2c(=O)n1-c1ccc(Br)cc1`, the IC50 stood at 7.6 µM.
To `CSc1ncc2c(=O)n(-c3ccc(Br)cc3)c(=O)[nH]c2n1` belongs 20 µM.
